Strand notation (5' to 3'): a small letter for the sugar, then the base; units joined by * are phosphorothioate-linked, units joined directly phosphodiester-linked; [ ] holds rarer units or linkages, { } end groups; capitals alone tell only the bases. e = 2'-O-(2-methoxyethyl) (MOE); l = locked nucleic acid (LNA); [5mC] = 5-methylcytosine; d = 2'-deoxy (DNA)
System: rat SGLT2 mRNA
Assay: Rat SGLT2 mRNA in kidney, 1-10-1 and 1-10-2 MOE gapmers, Sprague-Dawley rats (Table 63)
Assay type: in vivo
Details: 50 nmol/kg i.p. twice per week for three weeks
Excerpt: 1-10-1 and 1-10-2 MOE gapmer antisense compounds, provided in Table 62, were designed to target different regions of the mouse or rat SGLT2 RNA. All short antisense compounds in Table 62 are chimeric oligonucleotides (“gapmers”) either 12 or 13 nucleotides in length, composed of a central “gap” segment consisting of ten 2′-deoxynucleotides, which are flanked on the 5′ side by a one-nucleoside “wing” and on the 3′ side by a two or one-nucleotide “wing”. […] All cytidine residues are 5-methylcytidines.
The short antisense compounds were analyzed for their effect on rat SGLT2 mRNA levels. Data are ranges taken from three experiments in which Male Sprague-Dawley rats (170-200 g) were dosed twice per week for three weeks with 450, 150 or 50 nmol/kg of either a 1-10-1 or 1-10-2 MOE gapmer given by intraperitoneal injection. Rats were sacrificed 48 hours following last administration and evaluated for SGLT2 mRNA levels in kidney. Target levels were determined by RT, real-time PCR as described by other examples herein. PCR results were normalized to an internal ISIS control.

With “ISIS 382675 (eT*dA*dG*d[5mC]*d[5mC]*dA*d[5mC]*d[5mC]*dA*dA*d[5mC]*eT*eG)” the “% change in SGLT2 expression relative to saline” value was −50%.

Same assay, conditions: 150 nmol/kg i.p. twice per week for three weeks

For “ISIS 382675 (eT*dA*dG*d[5mC]*d[5mC]*dA*d[5mC]*d[5mC]*dA*dA*d[5mC]*eT*eG)”, the “% change in SGLT2 expression relative to saline” value was −65%.

Same assay, conditions: 450 nmol/kg i.p. twice per week for three weeks

For “ISIS 382675 (eT*dA*dG*d[5mC]*d[5mC]*dA*d[5mC]*d[5mC]*dA*dA*d[5mC]*eT*eG)”, the “% change in SGLT2 expression relative to saline” value was −80%.

System: mouse SGLT2 mRNA
Assay: Mouse SGLT2 mRNA in kidney, MOE versus Methyleneoxy BNA gapmers (Table 69)
Assay type: in vivo
Details: 5 nmol/kg i.p. twice per week for three weeks, Balb/c mouse kidney
Experimental: The effect of ISIS 3796921-10-1 MOE gapmer and ISIS 3886252-8-2 MOE gapmer are compared with the effect of ISIS 3921701-10-1 Methyleneoxy BNA Gapmer and ISIS 3921732-8-2 Methyleneoxy BNA Gapmer (see Table 69) on mouse SGLT2 mRNA levels in vivo. Data are taken from three experiments in which male 6-week old Balb/c mice were dosed twice per week for three weeks with 5, 25 and 125 nmol/kg of either the ISIS 3796921-10-1 MOE gapmer or the ISIS 3886252-8-2 MOE gapmer given by intraperitoneal injection. Mice were sacrificed 48 hours following last administration and evaluated for SGLT2 mRNA levels in kidney. Target levels were determined by RT, real-time PCR as described by other examples herein. PCR results were normalized to an internal ISIS control. The data are expressed as percent change (“+” indicates an increase, “−” indicates a decrease) relative to saline treated animals and are illustrated in Table 69.

First: ISIS 392170: 1-10-1 Methyleneoxy BNA Gapmer, SGLT2 (lT*dG*dT*dT*d[5mC]*d[5mC]*dA*dG*d[5mC]*d[5mC]*d[5mC]*lA)
Second: ISIS 392173: 2-8-2 Methyleneoxy BNA Gapmer, SGLT2 (lT*lG*dT*dT*d[5mC]*d[5mC]*dA*dG*d[5mC]*d[5mC]*l[5mC]*lA)
The “SGLT2 mRNA, percent change relative to saline treated animals” value of the first is higher: −23% for the first, −44% for the second.

Same assay, conditions: 25 nmol/kg i.p. twice per week for three weeks, Balb/c mouse kidney

Going from “ISIS 392170: 1-10-1 Methyleneoxy BNA Gapmer, SGLT2 (lT*dG*dT*dT*d[5mC]*d[5mC]*dA*dG*d[5mC]*d[5mC]*d[5mC]*lA)” to “ISIS 392173: 2-8-2 Methyleneoxy BNA Gapmer, SGLT2 (lT*lG*dT*dT*d[5mC]*d[5mC]*dA*dG*d[5mC]*d[5mC]*l[5mC]*lA)”, the “SGLT2 mRNA, percent change relative to saline treated animals” value falls from −54% to −57%.

Same assay, conditions: 125 nmol/kg i.p. twice per week for three weeks, Balb/c mouse kidney

Compared with “ISIS 392170: 1-10-1 Methyleneoxy BNA Gapmer, SGLT2 (lT*dG*dT*dT*d[5mC]*d[5mC]*dA*dG*d[5mC]*d[5mC]*d[5mC]*lA)”, “ISIS 392173: 2-8-2 Methyleneoxy BNA Gapmer, SGLT2 (lT*lG*dT*dT*d[5mC]*d[5mC]*dA*dG*d[5mC]*d[5mC]*l[5mC]*lA)” is lower in “SGLT2 mRNA, percent change relative to saline treated animals” value: −69% for the first, −75% for the second.

System: not listed separately
Assay: HbA1c status in ZDF rat (Table 72)
Assay type: in vivo
Details: Day 40; ZDF rat, 400 nM/kg i.p. once a week
Experimental: ISIS 388625, 388626 and control oligo ISIS 388628 were analyzed for their effect on ZDF rat plasma glucose levels and HbA1c. The leptin receptor deficient Zucker diabetic fatty (ZDF) rat is a useful model for the investigation of type 2 diabetes. Diabetes develops spontaneously in these male rats at ages 8-10 weeks, and is associated with hyperphagia, polyuria, polydipsia, and impaired weight gain, symptoms which parallel the clinical symptoms of diabetes (Phillips M S, et al., 1996, Nat Genet. 13, 18-19). Six week old ZDF rats were injected intraperitoneally with short antisense compound at a dose of 400 nM/kg once a week for twelve weeks. Data are illustrated in Tables 71 and 72.

Compared with “388625 (eT*eG*dT*dT*d[5mC]*d[5mC]*dA*dG*d[5mC]*d[5mC]*e[5mC]*eA) [compound 388625]”, “388628 (eT*eA*dG*d[5mC]*d[5mC]*dG*d[5mC]*d[5mC]*d[5mC]*dA*e[5mC]*eA) [compound 388628]” is higher in “Percentage HbA1c” value: 6.5% for the first, 8.0% for the second.

Same assay, conditions: Day 55; ZDF rat, 400 nM/kg i.p. once a week

Compared with “388625 (eT*eG*dT*dT*d[5mC]*d[5mC]*dA*dG*d[5mC]*d[5mC]*e[5mC]*eA) [compound 388625]”, “388628 (eT*eA*dG*d[5mC]*d[5mC]*dG*d[5mC]*d[5mC]*d[5mC]*dA*e[5mC]*eA) [compound 388628]” is higher in “Percentage HbA1c” value: 5.8% for the first, 9.1% for the second.

Same assay, conditions: Day 68; ZDF rat, 400 nM/kg i.p. once a week

Going from “388625 (eT*eG*dT*dT*d[5mC]*d[5mC]*dA*dG*d[5mC]*d[5mC]*e[5mC]*eA) [compound 388625]” to “388628 (eT*eA*dG*d[5mC]*d[5mC]*dG*d[5mC]*d[5mC]*d[5mC]*dA*e[5mC]*eA) [compound 388628]”, the “Percentage HbA1c” value rises from 4.3% to 7.8%.

System: DGAT2 mRNA
Assay: Antisense inhibition of DGAT2 in A10 cells, 75 nM (Table 81)
Assay type: cell-based, rat
Details: approximately 24 hours
Experimental: Short antisense compounds targeted to a DGAT2 nucleic acid were tested for their effects on DGAT2 mRNA in vitro. Cultured A10 cells in a 96-well plate were treated with 75 nM of short antisense compound. After a treatment period of approximately 24 hours, RNA was isolated from the cells and DGAT2 mRNA levels were measured by quantitative real-time PCR, as described herein. DGAT2 mRNA levels were adjusted according to total RNA content as measured by RIBOGREEN®. Results are presented as percent inhibition of DGAT2, relative to untreated control cells in Table 81.

Compared with “372524 (antisense eG*e[5mC]*e[5mC]*dA*dG*dG*d[5mC]*dA*dT*dG*dG*dA*dG*e[5mC]*eT*e[5mC]) [compound 372524]”, “372530 (antisense eT*e[5mC]*eG*dG*d[5mC]*d[5mC]*d[5mC]*d[5mC]*dA*dG*dG*dA*dG*e[5mC]*e[5mC]*e[5mC]) [compound 372530]” is higher in “% Control” value: 21 % Control for the first, 35 % Control for the second.

For “372546 (antisense eT*eT*eG*dG*dT*d[5mC]*dT*dT*dG*dT*dG*dA*dT*eT*eG*eT) [compound 372546]”, the “% Control” value was 34 % Control.

System: rat DGAT2 mRNA
Assay: Dose-dependent inhibition of DGAT2 in A10 cells (Tables 82, 83)
Assay type: cell-based
Details: 0.62 nM (Table 83)
Experimental: Additional short antisense compounds targeted to DGAT2 mRNA were tested in vitro in a dose-response experiment. A10 cells were prepared as described above and treated with 6.25, 12.5, 25.0, 50.0, 100.0, and 200.0 nM short antisense compounds to determine if DGAT2 inhibition occurs in a dose-dependent manner. […] Results are presented as percent inhibition, relative to untreated control cells.
Additional short antisense compounds targeted to DGAT2 mRNA were tested in vitro. A10 cells were prepared as described above and treated with 0.62, 1.85, 5.56, 16.67, 50.0, and 150.0 nM short antisense compounds to determine if DGAT2 inhibition occurs in a dose-dependent manner. DGAT2 mRNA was measured using quantitative real-time PCR, as described herein. […] Results are presented as percent inhibition of rat DGAT2, relative to untreated control cells.

Going from “372524 (antisense eG*e[5mC]*e[5mC]*dA*dG*dG*d[5mC]*dA*dT*dG*dG*dA*dG*e[5mC]*eT*e[5mC]) [compound 372524]” to “372530 (antisense eT*e[5mC]*eG*dG*d[5mC]*d[5mC]*d[5mC]*d[5mC]*dA*dG*dG*dA*dG*e[5mC]*e[5mC]*e[5mC]) [compound 372530]”, the “percent inhibition of rat DGAT2” value falls from 7% to 0%.

For “372546 (antisense eT*eT*eG*dG*dT*d[5mC]*dT*dT*dG*dT*dG*dA*dT*eT*eG*eT) [compound 372546]”, the “percent inhibition of rat DGAT2” value was 0%.

Same assay, conditions: 1.85 nM (Table 83)

Going from “372524 (antisense eG*e[5mC]*e[5mC]*dA*dG*dG*d[5mC]*dA*dT*dG*dG*dA*dG*e[5mC]*eT*e[5mC]) [compound 372524]” to “372530 (antisense eT*e[5mC]*eG*dG*d[5mC]*d[5mC]*d[5mC]*d[5mC]*dA*dG*dG*dA*dG*e[5mC]*e[5mC]*e[5mC]) [compound 372530]”, the “percent inhibition of rat DGAT2” value rises from 0% to 2%.

In the case of “372546 (antisense eT*eT*eG*dG*dT*d[5mC]*dT*dT*dG*dT*dG*dA*dT*eT*eG*eT) [compound 372546]”, the “percent inhibition of rat DGAT2” value is reported as 2%.

Same assay, conditions: 5.56 nM (Table 83)

Compared with “372524 (antisense eG*e[5mC]*e[5mC]*dA*dG*dG*d[5mC]*dA*dT*dG*dG*dA*dG*e[5mC]*eT*e[5mC]) [compound 372524]”, “372530 (antisense eT*e[5mC]*eG*dG*d[5mC]*d[5mC]*d[5mC]*d[5mC]*dA*dG*dG*dA*dG*e[5mC]*e[5mC]*e[5mC]) [compound 372530]” is lower in “percent inhibition of rat DGAT2” value: 5% for the first, 0% for the second.

With “372546 (antisense eT*eT*eG*dG*dT*d[5mC]*dT*dT*dG*dT*dG*dA*dT*eT*eG*eT) [compound 372546]” the “percent inhibition of rat DGAT2” value was 11%.

Same assay, conditions: 16.67 nM (Table 83)

Going from “372524 (antisense eG*e[5mC]*e[5mC]*dA*dG*dG*d[5mC]*dA*dT*dG*dG*dA*dG*e[5mC]*eT*e[5mC]) [compound 372524]” to “372530 (antisense eT*e[5mC]*eG*dG*d[5mC]*d[5mC]*d[5mC]*d[5mC]*dA*dG*dG*dA*dG*e[5mC]*e[5mC]*e[5mC]) [compound 372530]”, the “percent inhibition of rat DGAT2” value falls from 30% to 10%.

With “372546 (antisense eT*eT*eG*dG*dT*d[5mC]*dT*dT*dG*dT*dG*dA*dT*eT*eG*eT) [compound 372546]” the “percent inhibition of rat DGAT2” value was 4%.

Same assay, conditions: 50 nM (Table 83)

Going from “372524 (antisense eG*e[5mC]*e[5mC]*dA*dG*dG*d[5mC]*dA*dT*dG*dG*dA*dG*e[5mC]*eT*e[5mC]) [compound 372524]” to “372530 (antisense eT*e[5mC]*eG*dG*d[5mC]*d[5mC]*d[5mC]*d[5mC]*dA*dG*dG*dA*dG*e[5mC]*e[5mC]*e[5mC]) [compound 372530]”, the “percent inhibition of rat DGAT2” value falls from 68% to 38%.

With “372546 (antisense eT*eT*eG*dG*dT*d[5mC]*dT*dT*dG*dT*dG*dA*dT*eT*eG*eT) [compound 372546]” the “percent inhibition of rat DGAT2” value was 48%.

Same assay, conditions: 150 nM (Table 83)

First: 372524 (antisense eG*e[5mC]*e[5mC]*dA*dG*dG*d[5mC]*dA*dT*dG*dG*dA*dG*e[5mC]*eT*e[5mC]) [compound 372524]
Second: 372530 (antisense eT*e[5mC]*eG*dG*d[5mC]*d[5mC]*d[5mC]*d[5mC]*dA*dG*dG*dA*dG*e[5mC]*e[5mC]*e[5mC]) [compound 372530]
The “percent inhibition of rat DGAT2” value of the first is higher: 91% for the first, 78% for the second.

In the case of “372546 (antisense eT*eT*eG*dG*dT*d[5mC]*dT*dT*dG*dT*dG*dA*dT*eT*eG*eT) [compound 372546]”, the “percent inhibition of rat DGAT2” value is reported as 78%.

Source: patent US8372967B2, “Compounds and methods for modulating expression of GCCR” (Isis Pharmaceuticals, Inc., priority 2006, dated 2013)
